Experimental findings from patent publication US8247170B2, “Detection of penicillin tolerance in Group B Streptococcus: single nucleotide polymorphisms in penicillin binding protein 4” (priority 2008, dated 2012) are described below.

For this assay, the system named is GBS strains. The assay is described as follows: Cell viability by intracellular ATP concentration after penicillin. The assay is classed as cell-based, Group B Streptococcus. To be noted: GBS strain A909 compared to NEM316 and O90R; 100×MIC90 Penicillin G 22 hours. The method, then:
GBS strains were cultured for 18 hours at 37° C. in THB. These cultures were used to inoculate fresh THB and subsequently allowed to grow to exponential phase (OD600 0.25-0.3) at 37° C. One (1) ml of culture was centrifuged at 5,000 g for 4 min. The cell pellet was re-suspended in ATP free water. Cellular ATP was extracted by using trichloroacetic acid (TCA) (5%) for 2 min. and subsequently neutralized with Tris-EDTA-0.1M NaOAc, pH 7.75 to 10×TCA volume. The initial (in.) cellular ATP concentration ([ATP]) was measured using the ENLITEN (Promega) luciferase based reaction kit. THB cultures then treated 100×MIC90 Penicillin G for 22 hours. The experimental (exp.) cellular ATP was extracted and the concentration was measured as stated above. Based on the calculations ([ATP] exp.)/([ATP] in./O.D. in.), differences in viability were equated with the change in [ATP].
(I) Bacterial Strains and Culture Conditions. […] Cell cultures were allowed to re-grow for an additional 24 h at 37° C. before the OD600 was measured. […] The initial (in.) cellular ATP concentration ([ATP]) was measured using the ENLITEN (Promega) luciferase based reaction kit. […] The experimental (exp.) cellular ATP was extracted and the concentration was measured as stated above. […]

As to `CC1(C)S[C@@H]2[C@H](NC(=O)Cc3ccccc3)C(=O)N2[C@H]1C(=O)O` [Penicillin G], the “cellular [ATP] content (FIG. 3)” value is “significant lesser [ATP] content”.
